Results on 21 molecules are retold here after patent publication US20120201749A1, “NP-1 Antagonists and Their Therapeutic Use” (priority 2009, published 2012).

Several values for one entry are separate records, joined by “and”; a condition that tells them apart may be missing. Equal entries are not always repeated.

Data set [1] addresses NP-1 (Homo sapiens, UniProt O14786). Kind of data set: Biotinylated-VEGF-A165 (bt-VEGF-A165) binding to NP-1. The note with it: for inhibition at 3 µM: 3 μM compound, read-out: Screen (% inhibition at 3 μM); for inhibition at 30 µM: 30 μM compound, read-out: Screen (% inhibition at 30 μM). Put shortly:
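Both formats: compound with bt-VEGF-A165 for 2 h at room temperature, detection via streptavidin-HRP at A450 (ref A595). Cell-based: Ad.NP-1-transfected DU145 cells, 2 nM tracer, nonspecific from 100-fold unlabelled VEGF-A165. Cell-free: NP-1-coated wells (3 μg/ml), 0.25 nM tracer, nonspecific from uncoated wells.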

Data set [2] concerns human non-small-cell lung carcinoma A549 cells. Kind of data set: Lung cancer in vivo study, A549 xenografts in nude mice. The method, then:
For the efficacy study, human non-small-cell lung carcinoma A549 cells were cultured in growth medium RPMI 1640. The cells at 90% confluence were detached, counted and suspended in PBS to make the final concentration of cells 5×10^7/ml for inoculation.
The compound administration began two weeks after A549 cells were inoculated in female Balb/c nude mice. Compound 58 was dosed intraperitoneally at 80 mg/kg daily for a period of 2 weeks. Tumour volume was monitored by measuring the length and the width of the tumour using an electronic digital caliper (Fisher Scientific) daily for a period of 2 weeks. Tumour volumes were calculated using a formula (length×width^2/2). At the end of the experiment, tumours were dissected and weighed.

NP-1, sequence (O14786 22-923): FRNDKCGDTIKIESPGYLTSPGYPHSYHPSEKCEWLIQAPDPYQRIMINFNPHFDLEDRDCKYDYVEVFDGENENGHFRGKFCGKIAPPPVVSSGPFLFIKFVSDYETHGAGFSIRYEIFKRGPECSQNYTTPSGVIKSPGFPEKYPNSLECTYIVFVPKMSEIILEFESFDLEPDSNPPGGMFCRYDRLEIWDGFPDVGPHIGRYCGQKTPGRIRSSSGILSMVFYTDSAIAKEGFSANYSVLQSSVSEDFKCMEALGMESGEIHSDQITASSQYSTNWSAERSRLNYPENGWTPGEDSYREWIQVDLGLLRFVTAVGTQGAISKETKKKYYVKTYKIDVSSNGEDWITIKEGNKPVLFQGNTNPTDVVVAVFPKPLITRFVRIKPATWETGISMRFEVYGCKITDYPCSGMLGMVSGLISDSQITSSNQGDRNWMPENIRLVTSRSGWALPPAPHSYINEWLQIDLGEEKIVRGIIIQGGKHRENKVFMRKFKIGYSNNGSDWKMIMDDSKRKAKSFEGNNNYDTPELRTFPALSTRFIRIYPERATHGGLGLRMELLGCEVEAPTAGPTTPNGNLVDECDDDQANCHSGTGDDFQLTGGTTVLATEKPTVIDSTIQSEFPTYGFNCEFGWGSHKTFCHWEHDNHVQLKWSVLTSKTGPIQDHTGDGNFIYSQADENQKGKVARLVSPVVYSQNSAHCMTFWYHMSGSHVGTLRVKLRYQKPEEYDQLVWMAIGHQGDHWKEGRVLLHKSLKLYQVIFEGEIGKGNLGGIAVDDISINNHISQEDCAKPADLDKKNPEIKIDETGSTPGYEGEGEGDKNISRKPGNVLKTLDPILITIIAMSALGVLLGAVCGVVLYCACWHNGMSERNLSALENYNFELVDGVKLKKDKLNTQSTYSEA

Take `N=C(N)NCCC[C@H](NC(=O)c1sccc1NS(=O)(=O)c1cccc(NCc2csc(C3CCNCC3)n2)c1)C(=O)O` [Compound 56, (S)-5-guanidino-2-[(3-{3-[(2-piperidin-4-yl-thiazol-4-ylmethyl)-amino]-benzenesulfonylamino}-thiophene-2-carbonyl)-amino]-pentanoic acid]: in data set [1], the inhibition at 3 µM stood at 57% and the inhibition at 30 µM was found to be 89%.
In the case of `N=C(N)NCCC[C@H](NC(=O)c1sccc1NS(=O)(=O)c1cccc(NCc2csc(N3CCN(c4ccncc4)CC3)n2)c1)C(=O)O` [Compound 57, (S)-5-guanidino-2-{[3-(3-{[2-(4-pyridin-4-yl-piperazin-1-yl)-thiazol-4-ylmethyl]-amino}-benzenesulfonylamino)-thiophene-2-carbonyl]-amino}-pentanoic acid], in data set [1], the IC50 was found to be 40 nM, the inhibition at 3 µM amounted to 98% and the inhibition at 30 µM worked out at 99%.
For the molecule `N=C(N)NCCC[C@H](NC(=O)c1sccc1NS(=O)(=O)c1cccc(NCc2csc(N3CCNCC3)n2)c1)C(=O)O` [Compound 58, (S)-5-guanidino-2-[(3-{3-[(2-piperazin-1-yl-thiazol-4-ylmethyl)-amino]-benzenesulfonylamino}-thiophene-2-carbonyl]-amino]-pentanoic acid], the “reduction of the rate of tumour growth” value in data set [2] (80 mg/kg intraperitoneally daily for 2 weeks, A549 tumours, p=0.017 by linear regression test) was 52% and 50%. Besides, the “tumour weight reduced by” value in data set [2] (80 mg/kg intraperitoneally daily for 2 weeks, tumours weighed at end of experiment, p=0.04 by Mann Whitney test) came to 27%. In data set [2] (preclinical model of lung cancer), the “effect on rate of tumour growth (in words)” value was “significantly reduced the rate of tumour growth”. Besides, in data set [2] (single daily dose for two weeks, murine model of lung cancer), the evidence of toxicity entry is “No evidence of toxicity”. In data set [1], the IC50 was found to be 159 nM, the inhibition at 3 µM came to 72% and the inhibition at 30 µM was determined as 96%.
Take `N=C(N)NCCC[C@H](NC(=O)c1sccc1NS(=O)(=O)c1cccc(NCc2csc(N3CCN(Cc4cccnc4)CC3)n2)c1)C(=O)O` [Compound 59, (S)-5-guanidino-2-{[3-(3-{[2-(4-pyridin-3-ylmethyl-piperazin-1-yl)-thiazol-4-ylmethyl]-amino}-benzenesulfonylamino)-thiophene-2-carbonyl]-amino}-pentanoic acid]: in data set [1], the inhibition at 3 µM was 58% and the inhibition at 30 µM is 94%.
As to `N=C(N)NCCC[C@H](NC(=O)c1sccc1NS(=O)(=O)c1cccc(NCc2csc(N3CCC(N4CCOCC4)CC3)n2)c1)C(=O)O` [Compound 60, (S)-5-guanidino-2-{[3-(3-{[2-(4-morpholin-4-yl-piperidin-1-yl)-thiazol-4-ylmethyl]-amino}-benzenesulfonylamino)-thiophene-2-carbonyl]-amino}-pentanoic acid], in data set [1], the IC50 is 319 nM, the inhibition at 3 µM came to 70% and the inhibition at 30 µM came to 96%.
As to `N=C(N)NCCC[C@H](NC(=O)c1sccc1NS(=O)(=O)c1cccc(NCc2csc(N3CCN(c4cccnc4)CC3)n2)c1)C(=O)O` [Compound 62, (S)-5-guanidino-2-{[3-(3-{[2-(4-pyridin-3-yl-piperazin-1-yl)-thiazol-4-ylmethyl]-amino}-benzenesulfonylamino)-thiophene-2-carbonyl]-amino}-pentanoic acid], in data set [1], the inhibition at 3 µM worked out at 68% and the inhibition at 30 µM was 95%.
For `N=C(N)NCCC[C@H](NC(=O)c1sccc1NS(=O)(=O)c1cccc(NCc2csc(N3CCN(c4ccccn4)CC3)n2)c1)C(=O)O` [Compound 63, (S)-5-guanidino-2-{[3-(3-{[2-(4-pyridin-2-yl-piperazin-1-yl)-thiazol-4-ylmethyl]-amino}-benzenesulfonylamino)-thiophene-2-carbonyl]-amino}-pentanoic acid], in data set [1], the inhibition at 3 µM was found to be 49% and the inhibition at 30 µM was determined as 83%.
The matching figures for `N=C(N)NCCC[C@H](NC(=O)c1sccc1NS(=O)(=O)c1cccc(NCc2csc(N3CCC(N)CC3)n2)c1)C(=O)O` [Compound 64, (S)-5-guanidino-2-{[3-(3-{[2-(4-amino-piperidin-1-yl)-thiazol-4-ylmethyl]-amino}-benzenesulfonylamino)-thiophene-2-carbonyl]-amino}-pentanoic acid]: 72% and 92%.
As to `N=C(N)NCCC[C@H](NC(=O)c1sccc1NS(=O)(=O)c1cccc(NCc2csc(N3CCN(Cc4ccccn4)CC3)n2)c1)C(=O)O` [Compound 65, (S)-5-guanidino-2-{[3-(3-{[2-(4-pyridin-2-ylmethyl-piperazin-1-yl)-thiazol-4-ylmethyl]-amino}-benzenesulfonylamino)-thiophene-2-carbonyl]-amino}-pentanoic acid], in data set [1], the inhibition at 3 µM worked out at 40% and the inhibition at 30 µM is 90%.
As to `N=C(N)NCCC[C@H](NC(=O)c1sccc1NS(=O)(=O)c1cccc(NCc2csc(N3CCN(c4ncccn4)CC3)n2)c1)C(=O)O` [Compound 66, (S)-5-guanidino-2-{[3-(3-{[2-(4-pyrimidin-2-yl-piperazin-1-yl)-thiazol-4-ylmethyl]-amino}-benzenesulfonylamino)-thiophene-2-carbonyl]-amino}-pentanoic acid], in data set [1], the inhibition at 3 µM was 71% and the inhibition at 30 µM was 93%.
The matching figures for `Cc1cc(CNc2nc(CNc3cccc(S(=O)(=O)Nc4ccsc4C(=O)N[C@@H](CCCNC(=N)N)C(=O)O)c3)cs2)no1` [Compound 67]: 44% and 90%.
The matching figures for `N=C(N)NCCC[C@H](NC(=O)c1sccc1NS(=O)(=O)c1cccc(NCc2cnn(CCN3CCN(c4ccccn4)CC3)c2)c1)C(=O)O` [Compound 68]: 37% and 89%.
The matching figures for `COc1ccccc1-c1nc(CNc2cccc(S(=O)(=O)Nc3ccsc3C(=O)N[C@@H](CCCNC(=N)N)C(=O)O)c2)no1` [Compound 69, (S)-5-Guanidino-2-{[3-(3-{[5-(2-methyoxy-phenyl)-[1,2,4]oxadiazol-3-ylmethyl]-amino}-benzenesulfonylamino)-thiophene-2-carbonyl]-amino}-pentanoic acid]: 37% and 79%.
As for `N#Cc1cccc(NC(=O)CNc2cccc(S(=O)(=O)Nc3ccsc3C(=O)N[C@@H](CCCNC(=N)N)C(=O)O)c2)c1` [Compound 70, (S)-2-{[3-(3-{[(3-Cyano-phenylcarbamoyl)-methyl]-amino}-benzenesulfonylamino)-thiophene-2-carbonyl]-amino}-5-guanidino-pentanoic acid], in data set [1], the inhibition at 3 µM came to 25% and the inhibition at 30 µM was 63%.
For `N=C(N)NCCC[C@H](NC(=O)c1sccc1NS(=O)(=O)c1cccc(NCc2csc(N3CCOCC3)n2)c1)C(=O)O` [Compound 71, (S)-5-guanidino-2-[(3-{3-[(2-morpholin-4-yl-thiazol-4-ylmethyl)-amino]-benzenesulfonylamino}-thiophene-2-carbonyl]-amino]-pentanoic acid], in that order: 53% and 91%.
As for `N=C(N)NCCC[C@H](NC(=O)c1sccc1NS(=O)(=O)c1cccc(NCc2csc(C(=O)O)n2)c1)C(=O)O` [Compound 72], in data set [1], the inhibition at 3 µM is 31% and the inhibition at 30 µM came to 83%.
`CCN(Cc1ccncc1)c1nc(CNc2cccc(S(=O)(=O)Nc3ccsc3C(=O)N[C@@H](CCCNC(=N)N)C(=O)O)c2)cs1` [Compound 73, (S)-2-{[3-(3-{[2-(Ethyl-pyridin-4-ylmethyl-amino)-thiazol-4-ylmethyl]-amino}-benzenesulfonylamino)-thiophene-2-carbonyl]-amino}-5-guanidino-pentanoic acid]: the inhibition at 3 µM in data set [1] was 69%.
With `N=C(N)NCCC[C@H](NC(=O)c1sccc1NS(=O)(=O)c1cccc(NCc2csc(N3CCN(c4cnccn4)CC3)n2)c1)C(=O)O` [Compound 74], the inhibition at 3 µM in data set [1] came to 55%.
As to `N=C(N)NCCC[C@H](NC(=O)c1sccc1NS(=O)(=O)c1cccc(NCc2csc(N3CCN(c4ncncn4)CC3)n2)c1)C(=O)O` [Compound 75, (S)-5-guanidino-2-{[3-(3-{[2-(4-[1,3,5]triazin-2-yl-piperazin-1-yl)-thiazol-4-ylmethyl]-amino}-benzenesulfonylamino)-thiophene-2-carbonyl]-amino}-pentanoic acid], the inhibition at 3 µM in data set [1] is 63%.
For the molecule `N=C(N)NCCC[C@H](NC(=O)c1sccc1NS(=O)(=O)c1cccc(NCc2csc(N3CCN(c4nccs4)CC3)n2)c1)C(=O)O` [Compound 76, (S)-5-guanidino-2-{[3-(3-{[2-(4-thiazol-2-yl-piperazin-1-yl)-thiazol-4-ylmethyl]-amino}-benzenesulfonylamino)-thiophene-2-carbonyl]-amino}-pentanoic acid], the inhibition at 3 µM in data set [1] is 68%.
Take `N=C(N)NCCC[C@H](NC(=O)c1sccc1NS(=O)(=O)c1cccc(NCc2csc(N3CCN(CCO)CC3)n2)c1)C(=O)O` [Compound 77, (S)-5-Guanidino-2-({3-[3-({2-[4-(2-hydroxy-ethyl)-piperazin-1-yl]-thiazol-4-ylmethyl}-amino)-benzenesulfonylamino]-thiophene-2-carbonyl}-amino)-pentanoic acid]: in data set [1], the IC50 was 3700 nM and the inhibition at 3 µM amounted to 47%.
